Reference: ChEMBL document CHEMBL1140860, “Synthesis and evaluation of dihydroartemisinin and dihydroartemisitene acetal dimers showing anticancer and antiprotozoal activity” (Bioorg Med Chem, 2009)

What was measured:
OVCAR-5 = experiment: Growth inhibition of human OVCAR5 cells after 48 hrs by sulforhodamine B assay; format: functional; conditions: OVCAR-5, 48 h
MDA-MB-231 = experiment: Growth inhibition of human MDA-MB-231 cells after 48 hrs by sulforhodamine B assay; format: functional; conditions: MDA-MB-231, 48 h
SK-MEL-5 = experiment: Growth inhibition of human SK-MEL-5 cells after 48 hrs by sulforhodamine B assay; format: functional; conditions: SK-MEL-5, 48 h
IGROV-1 = experiment: Growth inhibition of human IGROV1 cells after 48 hrs by sulforhodamine B assay; format: functional; conditions: IGROV-1, 48 h
M14 = experiment: Growth inhibition of human M14 cells after 48 hrs by sulforhodamine B assay; format: functional; conditions: M14, 48 h
NCI-H522 = experiment: Growth inhibition of human NCI-H522 cells after 48 hrs by sulforhodamine B assay; format: functional; conditions: NCI-H522, 48 h
UACC-257 = experiment: Growth inhibition of human UACC257 cells after 48 hrs by sulforhodamine B assay; format: functional; conditions: UACC-257, 48 h
CCRF-CEM = experiment: Growth inhibition of human CCRF-CEM cells after 48 hrs by sulforhodamine B assay; format: functional
MDA-MB-435 = experiment: Growth inhibition of human MDA-MB-435 cells after 48 hrs by sulforhodamine B assay; format: functional; conditions: MDA-MB-435, 48 h
SR = experiment: Growth inhibition of human SR cells after 48 hrs by sulforhodamine B assay; format: functional
NCI-H226 = experiment: Growth inhibition of human NCI-H226 cells after 48 hrs by sulforhodamine B assay; format: functional; conditions: NCI-H226, 48 h
U-251 = experiment: Growth inhibition of human U251 cells after 48 hrs by sulforhodamine B assay; format: functional; conditions: U-251, 48 h
PC-3 = experiment: Growth inhibition of human PC3 cells after 48 hrs by sulforhodamine B assay; format: functional; conditions: PC-3, 48 h
NCI-H460 = experiment: Growth inhibition of human NCI-H460 cells after 48 hrs by sulforhodamine B assay; format: functional; conditions: NCI-H460, 48 h
SK-MEL-28 = experiment: Growth inhibition of human SK-MEL-28 cells after 48 hrs by sulforhodamine B assay; format: functional; conditions: SK-MEL-28, 48 h
HOP-62 = experiment: Growth inhibition of human HOP62 cells after 48 hrs by sulforhodamine B assay; format: functional; conditions: HOP-62, 48 h
[1] = Cytotoxicity against african green monkey Vero cells after 48 hrs by neutral red assay; format: cell-based; conditions: chlorocebus sabaeus, read-out: TC50
UACC-62 = experiment: Growth inhibition of human UACC62 cells after 48 hrs by sulforhodamine B assay; format: functional; conditions: UACC-62, 48 h
CAKI-1 = experiment: Growth inhibition of human Caki1 cells after 48 hrs by sulforhodamine B assay; format: functional; conditions: CAKI-1, 48 h
Malme-3M = experiment: Growth inhibition of human MALME-3M cells after 48 hrs by sulforhodamine B assay; format: functional
[2] = Selectivity index, ratio of TC50 for african green monkey (Cercopithecus aethiops) Vero cells to IC50 for chloroquine-resistant Plasmodium falciparum W2; format: toxicity, cell-based
A498 = experiment: Growth inhibition of human A498 cells after 48 hrs by sulforhodamine B assay; format: functional; conditions: A498, 48 h
HOP-92 = experiment: Growth inhibition of human HOP92 cells after 48 hrs by sulforhodamine B assay; format: functional; conditions: HOP-92, 48 h
A549 = experiment: Growth inhibition of human A549 cells after 48 hrs by sulforhodamine B assay; format: functional; conditions: A549, 48 h
HCT-116 = experiment: Growth inhibition of human HCT116 cells after 48 hrs by sulforhodamine B assay; format: functional; conditions: HCT-116, 48 h
[3] = Growth inhibition of human […] cells after 48 hrs by sulforhodamine B assay; format: functional
OVCAR-8 = experiment: Growth inhibition of human OVCAR8 cells after 48 hrs by sulforhodamine B assay; format: functional; conditions: OVCAR-8, 48 h
NCI/ADR-RES = experiment: Growth inhibition of human NCI/ADR-RES cells after 48 hrs by sulforhodamine B assay; format: functional
MOLT-4 = experiment: Growth inhibition of human MOLT4 cells after 48 hrs by sulforhodamine B assay; format: functional; conditions: MOLT-4, 48 h
BT-549 = experiment: Growth inhibition of human BT549 cells after 48 hrs by sulforhodamine B assay; format: functional; conditions: BT-549, 48 h
HCC 2998 = experiment: Growth inhibition of human HCC2998 cells after 48 hrs by sulforhodamine B assay; format: functional; conditions: HCC 2998, 48 h
MCF7 = experiment: Growth inhibition of human MCF7 cells after 48 hrs by sulforhodamine B assay; format: functional; conditions: MCF7, 48 h
RXF 393 = experiment: Growth inhibition of human RXF393 cells after 48 hrs by sulforhodamine B assay; format: functional; conditions: RXF 393, 48 h
OVCAR-3 = experiment: Growth inhibition of human OVCAR-3 cells after 48 hrs by sulforhodamine B assay; format: functional; conditions: OVCAR-3, 48 h
Plasmodium falciparum = experiment: Antimalarial activity after 72 hrs against chloroquine-sensitive Plasmodium falciparum D6 infected in erythrocytes by LDH assay; format: functional, organism-based; conditions: D6, 72 h
HL-60 = experiment: Growth inhibition of human HL-60(TB) cells after 48 hrs by sulforhodamine B assay; format: functional; conditions: HL-60, 48 h
EKVX = experiment: Growth inhibition of human EKVX cells after 48 hrs by sulforhodamine B assay; format: functional
TK-10 = experiment: Growth inhibition of human TK10 cells after 48 hrs by sulforhodamine B assay; format: functional; conditions: TK-10, 48 h
SF-268 = experiment: Growth inhibition of human SF268 cells after 48 hrs by sulforhodamine B assay; format: functional; conditions: SF-268, 48 h
MDA-N = experiment: Growth inhibition of human MDA-N cells after 48 hrs by sulforhodamine B assay; format: functional
KM12 = experiment: Growth inhibition of human KM12 cells after 48 hrs by sulforhodamine B assay; format: functional; conditions: KM12, 48 h
[4] = Growth inhibition of human Hs 578T cells after 48 hrs by sulforhodamine B assay; format: functional
HCT-15 = experiment: Growth inhibition of human HCT15 cells after 48 hrs by sulforhodamine B assay; format: functional; conditions: HCT-15, 48 h
ACHN = experiment: Growth inhibition of human ACHN cells after 48 hrs by sulforhodamine B assay; format: functional
SW-620 = experiment: Growth inhibition of human SW620 cells after 48 hrs by sulforhodamine B assay; format: functional; conditions: SW-620, 48 h
[5] = Selectivity index, ratio of TC50 for african green monkey (Cercopithecus aethiops) Vero cells to IC50 for chloroquine-sensitive Plasmodium falciparum D6; format: toxicity, cell-based
HT-29 = experiment: Growth inhibition of human HT-29 cells after 48 hrs by sulforhodamine B assay; format: functional; conditions: HT-29, 48 h
LOX IMVI = experiment: Growth inhibition of human LOXIMVI cells after 48 hrs by sulforhodamine B assay; format: functional
786-0 = experiment: Growth inhibition of human 786-0 cells after 48 hrs by sulforhodamine B assay; format: functional; conditions: 786-0, 48 h
SF-295 = experiment: Growth inhibition of human SF295 cells after 48 hrs by sulforhodamine B assay; format: functional; conditions: SF-295, 48 h

C[C@H]1[C@@H](O[C@H]2CC[C@@H](O[C@H]3O[C@@H]4O[C@@]5(C)CC[C@H]6[C@H](C)CC[C@@H]([C@H]3C)[C@@]46OO5)CC2)O[C@@H]2O[C@@]3(C)CC[C@H]4[C@H](C)CC[C@@H]1[C@@]24OO3
GI50 (OVCAR-5): 0.152 µM | GI50 (MDA-MB-231): 0.092 µM | GI50 (SK-MEL-5): 0.017 µM | GI50 (IGROV-1): 6.75 µM | GI50 (M14): 0.027 µM | GI50 (NCI-H522): 0.021 µM | GI50 (UACC-257): 0.027 µM | GI50 (CCRF-CEM): < 0.005 µM | GI50 (MDA-MB-435): 0.028 µM | GI50 (SR): 0.014 µM | GI50 (NCI-H226): 0.347 µM | GI50 (U-251): 0.019 µM | GI50 (PC-3): 0.011 µM | GI50 (NCI-H460): 0.017 µM | GI50 (SK-MEL-28): 0.085 µM | GI50 (HOP-62): 12.3 µM | CC50 at 48 h [1]: > 7340 µM | GI50 (UACC-62): 0.022 µM | GI50 (CAKI-1): 0.037 µM | GI50 (Malme-3M): 0.044 µM | selectivity ratio [2]: > 915 | GI50 (A498): 0.04 µM | GI50 (HOP-92): 0.017 µM | GI50 (A549): 0.02 µM | GI50 (HCT-116): 0.016 µM | GI50 [3]: < 0.005 µM | GI50 (OVCAR-8): 0.019 µM | GI50 (NCI/ADR-RES): 0.077 µM | GI50 (MOLT-4): 0.02 µM | GI50 (BT-549): 0.042 µM | GI50 (HCC 2998): 0.018 µM | GI50 (MCF7): 0.016 µM | GI50 (RXF 393): 0.018 µM | GI50 (OVCAR-3): 0.015 µM | IC50 (Plasmodium falciparum): 4.6 µM | GI50 (HL-60): 0.017 µM | GI50 (EKVX): 0.024 µM | GI50 (TK-10): 0.029 µM | GI50 (SF-268): 0.034 µM | GI50 (MDA-N): 0.024 µM | GI50 (KM12): 0.012 µM | GI50 [4]: 0.049 µM | GI50 (HCT-15): 0.014 µM | GI50 (ACHN): 0.027 µM | GI50 (SW-620): 0.012 µM | selectivity ratio [5]: > 1590 | GI50 (HT-29): 0.026 µM | GI50 (LOX IMVI): 0.017 µM | GI50 (786-0): 0.031 µM | GI50 (SF-295): 0.028 µM
